Measured values as given in ChEMBL document CHEMBL1201862, “PubChem BioAssay data set” (2004).
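48-hour exposure; five concentrations; linearly interpolated endpoints. GI50 marks 50% less growth.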 The source made the active and inactive calls. Cut-off read from the data, not from the text of the source: active = GI50 up to about 1.1 µM and inactive = higher.

Key:
Assay in all cases: NCI anticancer screen, dose series, 48 h
DU-145 = system: DU-145
CAKI-1 = system: CAKI-1
T47D = system: T47D
NCI-H460 = system: NCI-H460
RPMI-8226 = system: RPMI-8226
OVCAR-3 = system: OVCAR-3
COLO 205 = system: COLO 205
UO-31 = system: UO-31
TK-10 = system: TK-10
MDA-MB-435 = system: MDA-MB-435
786-0 = system: 786-0
SNB-75 = system: SNB-75
MDA-N = system: MDA-N
CCRF-CEM = system: CCRF-CEM
UACC-62 = system: UACC-62
SF-539 = system: SF-539
NCI/ADR-RES = system: NCI/ADR-RES
K562 = system: K562
Hs-578T = system: Hs-578T
EKVX = system: EKVX

Measured: GI50

Clc1cc(Cl)ncn1
inactive: DU-145 > 100 µM | CAKI-1 > 100 µM | T47D > 100 µM | NCI-H460 > 100 µM | RPMI-8226 40.9 µM | OVCAR-3 > 100 µM | COLO 205 > 100 µM | UO-31 > 100 µM | TK-10 > 100 µM | MDA-MB-435 > 100 µM | 786-0 > 100 µM | SNB-75 > 100 µM | MDA-N > 100 µM | CCRF-CEM > 100 µM | UACC-62 > 100 µM | SF-539 > 100 µM | NCI/ADR-RES > 100 µM | K562 > 100 µM | Hs-578T > 100 µM

CN(C)CCNc1ccc([N+](=O)[O-])c2sc3ccccc3c(=O)c12
inactive: DU-145 5.07 µM | T47D 13.7 µM | NCI-H460 1.65 µM | EKVX 4.5 µM | RPMI-8226 2.64 µM | OVCAR-3 3.68 µM | COLO 205 2.86 µM | UO-31 4.34 µM | TK-10 12.3 µM | MDA-MB-435 5.19 µM | 786-0 3.38 µM | SNB-75 4.68 µM | MDA-N 4.92 µM | CCRF-CEM 2.26 µM | UACC-62 4.61 µM | SF-539 3.65 µM | NCI/ADR-RES 3.44 µM | K562 4.43 µM | Hs-578T 5.52 µM

CCN(CC)CCN(C)CCc1ccc(Br)cc1
inactive: DU-145 > 100 µM | CAKI-1 > 100 µM | T47D > 100 µM | NCI-H460 > 100 µM | EKVX > 100 µM | RPMI-8226 > 100 µM | OVCAR-3 > 100 µM | COLO 205 17.4 µM | UO-31 83.8 µM | TK-10 > 100 µM | MDA-MB-435 53.1 µM | 786-0 53.7 µM | SNB-75 46.7 µM | MDA-N 29.7 µM | CCRF-CEM 51.8 µM | SF-539 30.8 µM | NCI/ADR-RES 79.4 µM | K562 25.7 µM | Hs-578T 21.7 µM

Cc1cn(C2OC(CO)C(O)C2F)c(=O)[nH]c1=O (centres undefined)
inactive: DU-145 70.1 µM | CAKI-1 > 100 µM | T47D > 100 µM | NCI-H460 21.7 µM | EKVX > 100 µM | OVCAR-3 > 100 µM | COLO 205 > 100 µM | UO-31 > 100 µM | TK-10 > 100 µM | MDA-MB-435 > 100 µM | 786-0 87.5 µM | SNB-75 > 100 µM | MDA-N > 100 µM | CCRF-CEM 12.2 µM | UACC-62 64.3 µM | SF-539 > 100 µM | NCI/ADR-RES 64 µM | K562 59.7 µM | Hs-578T > 100 µM

COc1ccc(-c2cn3c(nc4ccccc43)c(/C=C/c3cccs3)n2)cc1
inactive: DU-145 > 100 µM | T47D 43.2 µM | NCI-H460 32.4 µM | RPMI-8226 15.4 µM | OVCAR-3 21.6 µM | COLO 205 29.8 µM | UO-31 > 100 µM | TK-10 > 100 µM | MDA-MB-435 4.28 µM | 786-0 71.3 µM | SNB-75 52.6 µM | MDA-N 7.53 µM | UACC-62 68.2 µM | SF-539 89.7 µM | NCI/ADR-RES 13 µM | K562 9.48 µM | Hs-578T 28.4 µM

NC1CC(Cl)c2c(Cl)sc(Cl)c21 (centres undefined)
inactive: DU-145 > 100 µM | CAKI-1 > 100 µM | T47D > 100 µM | NCI-H460 > 100 µM | EKVX > 100 µM | OVCAR-3 > 100 µM | COLO 205 > 100 µM | UO-31 > 100 µM | TK-10 > 100 µM | MDA-MB-435 > 100 µM | 786-0 > 100 µM | SNB-75 > 100 µM | MDA-N > 100 µM | CCRF-CEM 34 µM | UACC-62 > 100 µM | SF-539 > 100 µM | NCI/ADR-RES > 100 µM | K562 > 100 µM | Hs-578T > 100 µM

O=[N+]([O-])c1ccc(/N=N/c2c(O)ccc3cc(S(=O)(=O)O)ccc23)cc1
inactive: DU-145 > 100 µM | CAKI-1 > 100 µM | T47D > 100 µM | EKVX > 100 µM | RPMI-8226 > 100 µM | OVCAR-3 > 100 µM | COLO 205 > 100 µM | UO-31 > 100 µM | TK-10 > 100 µM | MDA-MB-435 > 100 µM | 786-0 > 100 µM | SNB-75 > 100 µM | MDA-N > 100 µM | CCRF-CEM > 100 µM | UACC-62 > 100 µM | NCI/ADR-RES > 100 µM | K562 > 100 µM | Hs-578T > 100 µM

CCOC(=O)c1c2ccccc2n2c(=O)n(-c3ccc(OC)cc3)nnc12
inactive: DU-145 75.2 µM | CAKI-1 > 45.7 µM | T47D 24.3 µM | NCI-H460 > 95.1 µM | EKVX 32.1 µM | RPMI-8226 25.1 µM | OVCAR-3 34.4 µM | COLO 205 > 100 µM | UO-31 29.4 µM | TK-10 46.6 µM | MDA-MB-435 > 37.1 µM | 786-0 17 µM | SNB-75 14.5 µM | MDA-N > 100 µM | UACC-62 11.2 µM | SF-539 19.5 µM | NCI/ADR-RES 31 µM | K562 25.9 µM | Hs-578T 19.9 µM
